Test results taken from a melting point compilation (Tetko et al.; mined from patent text by program, amines drawn as free bases though some values may be those of a salt).

**Q.** Which melting point does the source give for `CCOC(=O)C1=Cc2ccc(O)cc2OCC1` here?
**A.** 131 to 132 °C

**Q.** Which melting point does the source give for `OCCCCCCCCCCCCCCCCCCCCO` here?
**A.** 93 °C

**Q.** For `CCN(C=C(C#N)C#N)c1cc(C(F)(F)F)cc(C(F)(F)F)c1`, which melting point is on record?
**A.** 118 to 120 °C

**Q.** With `CCCCn1c(=O)c2c(ncn2S(=O)(=O)CC23CCC(CC2=O)C3(C)C)n(CCCC)c1=O` (centres undefined) as the compound, how does the melting point read?
**A.** 55 to 56 °C

**Q.** Which melting point does the source give for `CC12CC(O)CCC1CCC1C2CCC2(C)C(O)C(N3CCCCC3)CC12` (centres undefined) here?
**A.** 215 to 219 °C

**Q.** With `CCCCn1c(=O)c2cn(S(=O)(=O)c3ccc(OC(F)(F)F)cc3)nc2n(CCCC)c1=O` as the compound, how does the melting point read?
**A.** 135 to 137 °C

**Q.** Which melting point does the source give for `CCOC(=O)c1cc2c(F)ccc(Cl)c2s1` here?
**A.** 63 to 64 °C

**Q.** With `CC(=O)COc1cc2c3ccccc3n(Cc3ccccc3)c2cn1` as the compound, how does the melting point read?
**A.** 141 to 142 °C

**Q.** With `CC1(C)Cc2cccc(Oc3c(Cl)cc([N+](=O)[O-])cc3Cl)c2O1` as the compound, how does the melting point read?
**A.** 105 to 110 °C

**Q.** With `Nn1cccc1-c1ccccc1` as the compound, how does the melting point read?
**A.** 80 to 82 °C

**Q.** With `NS(=O)(=O)C1=CC2=C(OCCO)CCSC2S1` (centres undefined) as the compound, how does the melting point read?
**A.** 110 to 113 °C

**Q.** Which melting point does the source give for `O=c1[nH]c2ccc(Cl)cc2n1-c1ccc(Cl)cc1` here?
**A.** 239 °C

**Q.** For `Cc1ccc(OCc2c(F)cccc2Cl)c(NC(=S)Nc2ccc(Cl)cc2)n1`, which melting point is on record?
**A.** 204 to 205 °C

**Q.** With `Cc1cc(C(=S)N(C)C)ncc1C(c1cc(F)ccc1F)S(=O)(=O)c1ccc(F)cc1` (centres undefined) as the compound, how does the melting point read?
**A.** 161 to 164 °C

**Q.** For `CCc1ccc2nc(C)c(S(=O)(=O)NC(=O)Nc3nc(OC)cc(OC)n3)n2n1`, which melting point is on record?
**A.** 172 to 174 °C

**Q.** With `O=C(O)[C@@H]1Cc2cc(O)c(O)cc2CN1C(=O)c1ccccc1` as the compound, how does the melting point read?
**A.** 189 to 192 °C

**Q.** For `CCOC(=O)/C=C(C)/C=C/C=C(\C)C1=Cc2cc(C(C)(C)C)cc(C(C)(C)C)c2OC1`, which melting point is on record?
**A.** 130 to 131 °C

**Q.** With `CCCS(=O)(=O)N=C(N[N+](=O)[O-])SC` as the compound, how does the melting point read?
**A.** 91 to 93 °C

**Q.** With `O=c1ccc(Cc2cccnc2)c[nH]1` as the compound, how does the melting point read?
**A.** 142 to 144 °C

**Q.** For `O=C(O)/C=C/C=C(c1ccccc1C(F)(F)F)c1ccccc1C(F)(F)F`, which melting point is on record?
**A.** 162 to 164 °C

**Q.** Which melting point does the source give for `CCOC(=O)COc1ccc(Cn2c(-c3ccc(OCc4ccccc4)cc3)c(C)c3cc(OCc4ccccc4)ccc32)cc1` here?
**A.** 129 to 131 °C

**Q.** Which melting point does the source give for `OCCCCCCCCCCCOc1ccccc1` here?
**A.** 56 to 58 °C

**Q.** Which melting point does the source give for `Cc1ccc2oc(=O)c(C(=O)Oc3cc(F)ccc3F)cc2c1` here?
**A.** 155 to 159 °C

**Q.** Which melting point does the source give for `O=C(O)c1ccccc1-c1ccccc1CN1C(=O)c2ccccc2C1=O` here?
**A.** 198 °C

**Q.** With `CCOC(=O)C(=CNc1cc(C)nn1-c1ccccc1)C(=O)OCC` as the compound, how does the melting point read?
**A.** 70 to 72 °C

**Q.** Which melting point does the source give for `O=C1C(O)=C(c2ccccc2)CN1Cc1ccco1` here?
**A.** 222 to 226 °C

**Q.** For `Cc1nc(NC(=O)NS(=O)(=O)c2ccccc2OC(Cl)=CCl)nc2c1CCO2`, which melting point is on record?
**A.** 208 to 210 °C

**Q.** With `C[C@H](COS(C)(=O)=O)NC(=O)OC(C)(C)C` as the compound, how does the melting point read?
**A.** 65 to 68 °C

**Q.** With `CSc1nnc(-c2ccc(-c3ccccc3)cc2)n1-c1ccccc1F` as the compound, how does the melting point read?
**A.** 199 to 200 °C

**Q.** With `CCCCNC(=O)NCCC` as the compound, how does the melting point read?
**A.** 70 to 72 °C

**Q.** For `COC(=O)c1c(C(=O)OC)c(-c2ccc(F)c(F)c2)n2c1Cc1ccccc1C2`, which melting point is on record?
**A.** 142 to 144 °C

**Q.** Which melting point does the source give for `c1ccc(N=C(N=C(Nc2ccccc2)c2ccccc2)N2CCCC2)cc1` here?
**A.** 246 to 247 °C

**Q.** Which melting point does the source give for `CCOCc1nc2c(N)nc3cc(Br)cnc3c2n1CC(C)(C)NC(=O)OC(C)(C)C` here?
**A.** 176 to 178 °C

**Q.** Which melting point does the source give for `O=C(CN1CCCCC1)Nc1ccc2cc3ccc(NC(=O)CN4CCCCC4)cc3nc2c1` here?
**A.** 192 to 194 °C

**Q.** Which melting point does the source give for `Cc1cc(N=CN(C)C)c(C)cc1Cc1cccc(C(F)(F)F)c1` here?
**A.** 75 to 77 °C

**Q.** Which melting point does the source give for `O=S(=O)(Nc1ccc2c(OCC3(c4cccc(C(F)(F)F)c4)N=CNO3)cccc2c1)C(F)(F)F` (centres undefined) here?
**A.** 107 to 108 °C

**Q.** For `Clc1ccc2c(C3=CCNCC3)c[nH]c2c1`, which melting point is on record?
**A.** 181 to 185 °C

**Q.** With `Cc1cc(Cl)ccc1OCC(=O)N1Cc2ccc(C(=O)c3ccc(Cl)cc3)n2Cc2ccccc21` as the compound, how does the melting point read?
**A.** 175 to 176 °C

**Q.** For `O=C(Nc1ccc(F)cc1)NS(=O)(=O)C1CCCC1`, which melting point is on record?
**A.** 155 to 157 °C

**Q.** For `COC(=O)c1oc2ccc(OC)cc2c1OC(C)C`, which melting point is on record?
**A.** 55 to 63 °C

**Q.** With `COC(=NC(=O)Nc1ccc(OC(F)(F)F)cc1)c1ccccc1Cl` as the compound, how does the melting point read?
**A.** 148 to 149 °C

**Q.** Which melting point does the source give for `COc1c(C=NO)c(=O)n(C)c(=O)n1C` here?
**A.** 127 to 128 °C

**Q.** With `O=C(NCCCCCCCNC(=O)c1ccc(OC2CCCC2)cc1)c1ccc(OC2CCCC2)cc1` as the compound, how does the melting point read?
**A.** 153 to 154 °C

**Q.** For `COc1cc2cc(CO)c(CO)c(-c3ccnc(NN)c3)c2cc1OC`, which melting point is on record?
**A.** 214 to 220 °C

**Q.** With `O[C@@H]1C=CO[C@H](COCc2ccccc2)[C@H]1OCc1ccccc1` as the compound, how does the melting point read?
**A.** 53 °C

**Q.** With `COC(=O)C1=C(C)NC(C)=C(C(=O)OCCN2CCCN(C(c3ccccc3)c3ccccc3)CC2)C1c1cccc([N+](=O)[O-])c1` (centres undefined) as the compound, how does the melting point read?
**A.** 60 to 63 °C

**Q.** With `Oc1ccccc1-c1nccs1` as the compound, how does the melting point read?
**A.** 215 °C

**Q.** Which melting point does the source give for `COc1ccc(-c2cc(OC3SCC(O)C(O)C3O)ccn2)cc1` (centres undefined) here?
**A.** 150 to 154 °C

**Q.** With `CCn1nc(Br)c([N+](=O)[O-])c1NCc1ccccc1` as the compound, how does the melting point read?
**A.** 92 °C
